Measured values taken from ChEMBL document CHEMBL1135625, “Synthesis and antiinflammatory evaluation of 9-anilinoacridine and 9-phenoxyacridine derivatives” (J Med Chem, 2002).
pIC50: −log10 of the molar value.

Assays:
N9 [1] = test: (§1) Inhibitory activity against TNF-alpha release in N9 cells in the supernatant; assay type: functional, cell-based, Mus musculus
RAW264.7 [2] = test: (§2) Inhibitory activity against TNF-alpha release in RAW 264.7 cells in the supernatant; assay type: functional, cell-based; settings: Mus musculus
Rattus norvegicus [3] = species on record: Rattus norvegicus; test: Inhibitory activity against mast cell degranulation by measuring the content of beta-glucuronidase in the supernatant; assay type: functional
Rattus norvegicus [4] = species on record: Rattus norvegicus; test: Inhibitory activity against mast cell degranulation by measuring the content of histamine in the supernatant; assay type: functional
Rattus norvegicus [5] = species on record: Rattus norvegicus; test: Inhibitory activity against neutrophil degranulation by measuring the content of lysozyme in the supernatant; assay type: functional
Rattus norvegicus [6] = species on record: Rattus norvegicus; test: Inhibitory activity against neutrophil degranulation by measuring the content of beta-glucuronidase in the supernatant; assay type: functional
N9 [7] = test: 50% inhibition against TNF-alpha release in N9 cells in the supernatant; assay type: functional, cell-based; settings: Mus musculus
N9 [8] = test: % inhibition against TNF-alpha release in N9 cells in the supernatant; assay type: functional, Mus musculus; parameters: concentration or dose not given beside the values
Rattus norvegicus [9] = species on record: Rattus norvegicus; test: % inhibition against mast cell degranulation by measuring the content of histamine in the supernatant; assay type: functional; parameters: concentration or dose not given beside the values
Rattus norvegicus [10] = species on record: Rattus norvegicus; test: % inhibition against mast cell degranulation by measuring the content of beta-glucuronidase in the supernatant; assay type: functional; parameters: concentration or dose not given beside the values
RAW264.7 [11] = test: % inhibition against TNF-alpha release in RAW 264.7 cells in the supernatant; assay type: functional, Mus musculus; parameters: concentration or dose not given beside the values
RAW264.7 [12] = test: 50% inhibition against TNF-alpha release in RAW 264.7 cells in the supernatant; assay type: functional, cell-based; settings: Mus musculus
Rattus norvegicus [13] = species on record: Rattus norvegicus; test: % inhibition against neutrophil degranulation by measuring the content of lysozyme in the supernatant; assay type: functional; parameters: concentration or dose not given beside the values
Rattus norvegicus [14] = species on record: Rattus norvegicus; test: % inhibition against neutrophil degranulation by measuring the content of beta-glucuronidase in the supernatant; assay type: functional; parameters: concentration or dose not given beside the values
Rattus norvegicus [15] = species on record: Rattus norvegicus; test: 50% inhibition against mast cell degranulation by measuring the content of beta-glucuronidase in the supernatant; assay type: functional
RAW264.7 [16] = test: as §2; assay type: functional, Mus musculus
N9 [17] = test: as §1; assay type: functional, Mus musculus
Rattus norvegicus [18] = species on record: Rattus norvegicus; test: % inhibition against mast cell degranulation by measuring the content of beta-glucuronidase in the supernatant; settings: concentration not given here

pIC50 (N9 [1])	pIC50 (RAW264.7 [2])	pIC50 (Rattus norvegicus [3])	pIC50 (Rattus norvegicus [4])	pIC50 (Rattus norvegicus [5])	pIC50 (Rattus norvegicus [6])	pIC50 (N9 [7])	pIC50 (RAW264.7 [12])	pIC50 (Rattus norvegicus [15])	inhibition (Rattus norvegicus [18]) [%]	Structure (SMILES)	Inhibition (N9 [8]) [%]	Inhibition (Rattus norvegicus [9]) [%]	Inhibition (Rattus norvegicus [10]) [%]	Inhibition (RAW264.7 [11]) [%]	Inhibition (Rattus norvegicus [13]) [%]	Inhibition (Rattus norvegicus [14]) [%]	Inhibition (RAW264.7 [16]) [%]	Inhibition (N9 [17]) [%]
7.13	6.38	–	–	–	–	–	–	–	–	C[C@@H]1C[C@H]2[C@@H]3CCC4=CC(=O)C=C[C@]4(C)[C@@]3(F)[C@@H](O)C[C@]2(C)[C@@]1(O)C(=O)CO [DEXAMETHASONE]	–	–	–	–	–	–	–	–
–	–	4.54	4.51	–	–	–	–	–	–	CCN(CC)CCCC(C)Nc1c2ccc(Cl)cc2nc2ccc(OC)cc12 (stereo not drawn) [QUINACRINE]	–	–	–	–	–	–	–	–
–	–	< 4.52	< 4.52	5.09	5.36	< 5.52	< 5.00	–	–	C/C(=N\O)c1ccc(Nc2c3ccccc3nc3ccccc23)cc1	40.1	23.3	29.5	44.9	–	–	–	–
< 5.00	< 4.52	< 4.52	< 4.52	< 4.52	< 4.52	–	–	–	–	COc1ccc2nc3cc(Cl)ccc3c(Oc3ccc(C(C)=O)cc3)c2c1	45.9	7.2	26.4	33.1	-12.8	10.4	–	–
–	–	4.89	5.00	–	–	–	–	–	–	CN1CCN(CCCN2c3ccccc3Sc3ccc(C(F)(F)F)cc32)CC1 [TRIFLUOPERAZINE]	–	–	–	–	–	–	–	–
–	–	< 4.52	< 4.52	4.63	< 4.52	6.10	< 5.00	–	–	CC(=O)c1ccc(Nc2c3ccccc3nc3ccccc23)cc1	–	15.7	34.7	47.2	–	26.7	–	–
–	–	–	4.68	< 4.52	< 4.52	< 5.52	< 4.52	4.68	–	CO/N=C(\C)c1ccc(Nc2c3ccccc3nc3ccccc23)cc1	39.3	–	–	7.2	15.4	46.9	–	–
–	< 4.52	–	4.67	< 4.52	< 4.52	< 5.52	–	4.68	–	O=Cc1ccc(Oc2c3ccccc3nc3ccccc23)cc1	–	–	–	–	44.8	49.9	17.2	19.9
–	–	< 4.52	< 4.52	< 4.52	< 4.52	< 6.00	5.09	–	–	CC(=O)COc1ccc(Nc2c3ccccc3nc3ccccc23)cc1	6.6	19.2	1.3	–	21.6	35.8	–	–
5.06	< 4.52	< 4.52	< 4.52	< 4.52	< 4.52	–	–	–	–	CC(=O)/C=C/c1ccc(Oc2c3ccccc3nc3ccccc23)cc1	–	-10.5	7.7	-15.7	10.3	32.4	–	–
< 5.52	< 4.52	< 4.52	< 4.52	4.73	< 4.52	–	–	–	–	CC(=O)c1ccc(Oc2c3ccccc3nc3ccccc23)cc1	23.9	43.8	44.6	45.6	–	42	–	–
< 4.52	< 4.52	< 4.52	< 4.52	< 4.52	< 4.52	–	–	–	–	CC(=O)c1ccc(Oc2c3ccccc3nc3ccc(Cl)cc23)cc1	12.3	14.4	29.4	4.6	-16.4	14.8	–	–
< 5.00	< 4.52	–	4.80	4.67	< 4.52	–	–	4.71	–	COc1cccc2c(Oc3ccc(C(C)=O)cc3)c3ccccc3nc12	19.7	–	–	34.3	–	35.2	–	–
< 5.52	< 4.52	< 4.52	< 4.52	< 4.52	< 4.52	–	–	–	–	CC(=O)c1ccc(Oc2c3c(nc4ccccc24)CCCC3)cc1	-3.5	5.7	13.3	48.9	32.4	42.1	–	–
< 5.52	4.71	< 4.52	< 4.52	4.74	4.89	–	–	–	25	COc1ccc2nc3ccccc3c(Oc3ccc(C(C)=O)cc3)c2c1	36.1	9.4	–	–	–	–	–	–
